Assay results reported in US20130266665A1, “NANO[…] DISEASE THERAPY” (priority 2012, published 2013).

What was measured:
Format in all cases: cell-based, human
OVCAR5 cells = assay: AFM cell stiffness (Young's modulus, peak indentation depth) of cisplatin-sensitive OVCAR5 cells; details: for Young's modulus E (mean±SEM), peak 2 / Young's modulus E (mean±SEM), peak 1: about 24 hours
Source text: (§1) SKOV3 (American Type Culture Collection; Manassas, Va.) and OVCAR5 cells were maintained in Dulbecco's Modified Eagle's Medium supplemented with about 10% fetal bovine serum. SKOV3-CisR and OVCAR5-CisR cells were established by exposing the parental SKOV3 and OVCAR5 cell lines, respectively, to increasing concentrations of cisplatin over 12 months. OVCAR5-CisR cells are about 20- and SKOV3-CisR cells are about 8-fold more resistant to cisplatin compared to their syngeneic cisplatin sensitive counterparts. Cells were grown at about 37° C. in a humidified atmosphere containing about 5% CO2 and about 95% air.
(§2) Cells were treated with about 1 or about 5 μg/mL cisplatin (Sigma-Aldrich, St. […]
(§3) A protocol was established to exclude unhealthy or apoptotic cells from measurements by staining cells with AnnexinV (Sigma-Aldrich) as an indicator of apoptosis. Stained cells are dead or apoptotic, and typically float away and are no longer attached to a surface. Cells that stained positive for AnnexinV were excluded from AFM analysis. Measurements were conducted using a Catalyst AFM (Bruker Instruments, Santa Barbara, Calif.) with a combined inverted optical/confocal microscope (Zeiss Corp., Thornwood, N.Y.). This combination permits lateral positioning of an AFM tip over the cell center with submicron precision. AFM images and mechanical measurements were collected in contact mode using sharpened silicon nitride cantilevers with experimentally determined spring constants of about 0.02 N/m and a tip radius of less than about 20 nm. Mechanical measurements were obtained at about 37° C. with force measurements recorded at a pulling rate of about 1 Hz. Force-displacement curves were recorded for determination of Young's modulus values. Conversion of force-displacement curves to force-indentation curves allows the determination of the local cell surface elasticity or stiffness (Young's modulus, E). The measurement outcomes include averaged E values. Nanoscope files were converted to Igor. 6.0 (Wavemetrix) and used to generate two-dimensional (2D) stiffness matrix of the cell populations, allowing more precise determination of localized cell stiffness. AFM measurements were obtained in at least 60 cells in three different experiments. The AFM tip was precisely positioned (within micron range) on top of the nucleus using motorized stage and inverted optical view of the combined confocal-AFM microscope.
(§4) Data were expressed as mean±standard error of mean (SEM). Statistical significance was identified by Student's t-test or one-way analysis of variance (Origin 8.0, OriginLab Corporation, Northmpton, Mass.) for the difference among treated pairs.

OVCAR5-CisR cells [1] = assay: AFM cell stiffness (Young's modulus, peak indentation depth) of cisplatin-resistant OVCAR5-CisR cells
Source text: as §1, §2, §3, §4

SKOV3-CisR cells = assay: Resistance to cisplatin of SKOV3-CisR cells versus parental SKOV3; details: SKOV3-CisR vs SKOV3
Source text: as §1

OVCAR5-CisR cells [2] = assay: Resistance to cisplatin of OVCAR5-CisR cells versus parental OVCAR5; details: OVCAR5-CisR vs OVCAR5
Source text: as §1

[3] = about 5 μM cytochalasin D alone

| SMILES | Young's modulus E (mean±SEM), peak 2 (OVCAR5 cells; about 1 μg/mL cisplatin) | Young's modulus E (mean±SEM), peak 1 (OVCAR5 cells; about 1 μg/mL cisplatin, untreated E=0.64±0.03 kPa) | Young's modulus E (mean±SEM), peak 1 (OVCAR5 cells; about 5 μg/mL cisplatin) | Young's modulus E (mean±SEM), peak 2 (OVCAR5 cells; about 5 μg/mL cisplatin) | peak indentation depth (OVCAR5 cells; cisplatin 1 μg/mL, untreated 1.2±0.04 μm) | peak indentation depth (OVCAR5 cells; cisplatin 5 μg/mL) | difference in cell stiffness between untreated and cisplatin-treated cells (OVCAR5-CisR cells [1]; cisplatin 5 μg/mL, P=0.45) | localized peak indentation (OVCAR5-CisR cells [1]; cisplatin 5 μg/mL, untreated 0.5±0.06 μm) | Young's modulus E, peak 1 (OVCAR5-CisR cells [1]; cisplatin 5 μg/mL, untreated 1.0±0.03 kPa) | Young's modulus E, peak 2 (OVCAR5-CisR cells [1]; cisplatin 5 μg/mL, untreated 1.84±0.1 kPa) | fold more resistant to cisplatin compared to syngeneic cisplatin sensitive counterpart (SKOV3-CisR cells) | fold more resistant to cisplatin compared to syngeneic cisplatin sensitive counterpart (OVCAR5-CisR cells [2]) | Young's modulus E (OVCAR5 cells; [3]) | Young's modulus E (OVCAR5-CisR cells [1]; [3]) |
| --- | --- | --- | --- | --- | --- | --- | --- | --- | --- | --- | --- | --- | --- | --- |
| N.N.[Cl][Pt][Cl] [cisplatin, cis-diamminedichloridoplatinum(II)] | 1.23±0.04 kPa | 0.53±0.01 kPa | 0.65±0.01 kPa | 1.28±0.06 kPa | 0.7±0.03 μm | 0.5±0.03 μm | no significant difference | 0.5±0.04 μm | 0.97±0.01 kPa | 1.88±0.05 kPa | 8 fold | 20 fold |  |  |
| C=C1[C@@H](C)[C@H]2[C@H](Cc3ccccc3)NC(=O)[C@]23[C@H](OC(C)=O)/C=C/[C@@](C)(O)C(=O)[C@@H](C)C/C=C/[C@H]3[C@@H]1O [cytochalasin D] |  |  |  |  |  |  |  |  |  |  |  |  | 0.34±0.02 kPa | 0.45±0.01 kPa |
